This is an account of results in US20160115542A1, “BIOMARKER OF Nrf2 ACTIVATION” (MOCHIDA PHARMACEUTICAL CO., LTD., priority 2013, published 2016).

Experiment [1] relates to FGF21. Description: FGF21 induction by administration of Nrf2 activator in diabetic db/db mice (plasma ELISA, hepatic qPCR). It counts as in vivo, mouse. The note with it: oral 10 mg/kg once a day for 1 week. The procedure:
(§1) FGF21 plasma concentration was measured using mouse/rat FGF21 Quantikine ELISA Kit (R & D Systems, Minneapolis, Minn., USA).
(§2) Total RNA was extracted from liver tissue using Isogen RNA extract kit (Nippon Gene), and reverse-transcribed to cDNA using SuperScript III (Invitrogen). Quantitative real-time PCR (qPCR) was carried out using TaqMan probes using an ABI 7300 system (Applied Biosystems). Relative expression of genes was normalized against Hprt (hypoxanthine guanine phosphoribosyl transferase) mRNA. The following primers and probes were used: […]
Using spontaneous diabetic db/db mice, plasma FGF21 concentration and hepatic Fgf21 gene expression level were compared after administration of the Nrf2 activator. CDDO-Im was used as the Nrf2 activator, and orally administered in 10 mg/kg, once a day for 1 week. Blood and tissue were collected under isoflurane anesthesia after certain hours from the administration, and plasma FGF21 concentration and hepatic Fgf21 mRNA expression level were measured in the same manner as in the method described in (1-2).
For orientation: An ELISA detects its analyte on a solid surface through an enzyme-linked reagent.

Another experiment concerns Nqo1. Description: Time-course of hepatic Nqo1 gene expression after single Nrf2 activator administration. Type of experiment: in vivo, mouse. The settings on record: db/db mice, single oral administration 30 μmol/kg. The method, then:
as §2
(§3) CDDO-Im was used as the Nrf2 activator, and orally administered to db/db mice in 30 μmol/kg. Blood and tissue were collected under isoflurane anesthesia after certain hours from the administration, and expression of the Nrf2 target gene Nqo1 in liver and plasma FGF21 concentration were measured in the same manner as in the method described in (1-2). The following primers and probes were used: […]

Experiment [2] deals with FGF21. Description: Time-course of plasma FGF21 concentration after single Nrf2 activator administration. The note with it: db/db mice, single oral administration 30 μmol/kg. Type of experiment: in vivo, mouse. The procedure:
as §1, §3

The test system of another experiment is mouse Fgf21 reporter. Description: FGF21 promoter (mouse Fgf21 reporter) luciferase assay in Hepa1 cells. It counts as cell-based. The settings on record: 100 nM, 48 hours. The procedure: Cloning of the mouse FGF21 promoter region was performed using a known technique. By using the mouse Fgf21 […] sequence as a template, a sequence (about 2.1 kbp) amplified with the primers 1.1 and 1.2 below was cloned into pGL4.15 vector (Promega) to create a mouse Fgf21 reporter vector.
The mouse Nrf2 cDNA sequence was cloned into pcDNA3.1/V5-His B vector (Invitrogen) to create a mouse Nrf2 expression vector.
Mouse hepatoma cells Hepa1c1c7 (Hepa1) were cultured in Dulbecco's Modified Eagle medium (Wako) supplemented with 10% fetal bovine serum, and 1% penicillin-streptomycin (Gibco). The mouse Fgf21 reporter vector and mouse Nrf2 expression vector, or the mouse Fgf21 reporter vector and an empty vector (mock) were transfected into Hepa1 cells using Lipofectamine 2000 Transfection Reagent (Invitrogen). The cells were cultured for 6 hours, and the medium was removed. The cells were further cultured for 48 hours after adding a medium containing 100 nM of Nrf2 activator CDDO-Im (2-cyano-3,12-dioxooleana-1,9(11)-dien-28-oic acid imidazol) or 0.1% dimethylsulfoxide (vehicle; Wako). Luciferase activity was then measured using a luminometer (Berthold).

Experiment [3] has as its system high-fat-diet (HFD)-induced obesity. The note with it: repetitive administration; cited from earlier work.
For experiment [4], the system named is HFD-induced obesity model and diabetic db/db model mice. The note with it: cited from earlier work.
For experiment [5], the system named is type 2 diabetes model rats. The settings on record: cited from earlier work.
In experiment [6] the test system is HFD-induced insulin resistance and obesity. The settings on record: cited from earlier work.
The subject of experiment [7] is STZ-induced type 1 diabetic mice. The settings on record: cited from earlier work.

`CC1(C)CC[C@]2(C(=O)n3ccnc3)CC[C@]3(C)[C@H](C(=O)C=C4[C@@]5(C)C=C(C#N)C(=O)C(C)(C)[C@@H]5CC[C@]43C)[C@@H]2C1` [CDDO-Im, 1-[2-cyano-3,12-dioxooleana-1,9(11)-dien-28-oyl]imidazole]: in the experiment on FGF21 [1] (Nrf2 gene knockout db/db mice), the “induction of hepatic FGF21 gene expression level in Nrf2 gene knockout db/db mice” value is on record as “abolished” and the “induction of plasma FGF21 concentration in Nrf2 gene knockout db/db mice” value is “abolished”. In the experiment with FGF21 [1] (db/db mice, vs vehicle), the “hepatic FGF21 gene expression level” value is “significantly increased” and the “plasma FGF21 concentration” value is listed as “significantly increased”. In the experiment on Nqo1, the “Nqo1 gene expression in liver” value is on record as “increased” and the “time for which increased hepatic Nqo1 expression level was sustained after administration” value was found to be 48 h. Moreover, in the experiment on FGF21 [2], the “plasma FGF21 concentration” value was “increased” and the “time postdose until which increased plasma FGF21 concentration was maintained” value was determined as 48 h. Besides, the “luciferase activity enhancement compared with the vehicle” value in the experiment on mouse Fgf21 reporter (Fgf21 reporter + empty vector (mock)) is recorded as “about 2 fold”. Also, in the experiment with mouse Fgf21 reporter (Fgf21 reporter + mouse Nrf2 expression vector), the “luciferase activity with transfection of mouse Nrf2 expression vector and addition of compound” value is on record as “further increased”. Also, in experiment [3], the “high-fat-diet (HFD)-induced obesity” value was “prevents”.
With `COC(=O)[C@]12CCC(C)(C)C[C@H]1[C@H]1C(=O)C=C3[C@@]4(C)C=C(C#N)C(=O)C(C)(C)[C@@H]4CC[C@@]3(C)[C@]1(C)CC2` [CDDO-Me, 2-cyano-3,12-dioxooleana-1,9(11)-dien-28-oic acid methyl ester], in [4], the “blood glucose level and plasma lipid level” value is listed as “reduce”.
In the case of `O=C(/C=C/c1ccc(O)c2c1[C@H](C(=O)O[C@H](Cc1ccc(O)c(O)c1)C(=O)O)[C@@H](c1ccc(O)c(O)c1)O2)O[C@H](Cc1ccc(O)c(O)c1)C(=O)O` [lithospermic acid B (LAB), lithospermic acid B], the β cell injury entry in [5] is recorded as “protected β cell injury”.
Turning to `Cc1c(-c2cnccn2)ssc1=S` [oltipraz], in [6], the “HFD-induced insulin resistance and obesity” value is “attenuates”.
For `C[S+]([O-])CCCCN=C=S` (stereo not drawn) [sulforaphane], the β cell injury entry in experiment [7] is “protected β cell injury”.
